Measured values as given in ChEMBL document CHEMBL1201862, “PubChem BioAssay data set” (2004).
Calls of active or inactive are those of the source.

Tests used:
[1] = biological target: T1, Histone-lysine N-methyltransferase NSD2 (Homo sapiens, UniProt O96028); type: biochemical
T1 sequence (O96028 whole entry): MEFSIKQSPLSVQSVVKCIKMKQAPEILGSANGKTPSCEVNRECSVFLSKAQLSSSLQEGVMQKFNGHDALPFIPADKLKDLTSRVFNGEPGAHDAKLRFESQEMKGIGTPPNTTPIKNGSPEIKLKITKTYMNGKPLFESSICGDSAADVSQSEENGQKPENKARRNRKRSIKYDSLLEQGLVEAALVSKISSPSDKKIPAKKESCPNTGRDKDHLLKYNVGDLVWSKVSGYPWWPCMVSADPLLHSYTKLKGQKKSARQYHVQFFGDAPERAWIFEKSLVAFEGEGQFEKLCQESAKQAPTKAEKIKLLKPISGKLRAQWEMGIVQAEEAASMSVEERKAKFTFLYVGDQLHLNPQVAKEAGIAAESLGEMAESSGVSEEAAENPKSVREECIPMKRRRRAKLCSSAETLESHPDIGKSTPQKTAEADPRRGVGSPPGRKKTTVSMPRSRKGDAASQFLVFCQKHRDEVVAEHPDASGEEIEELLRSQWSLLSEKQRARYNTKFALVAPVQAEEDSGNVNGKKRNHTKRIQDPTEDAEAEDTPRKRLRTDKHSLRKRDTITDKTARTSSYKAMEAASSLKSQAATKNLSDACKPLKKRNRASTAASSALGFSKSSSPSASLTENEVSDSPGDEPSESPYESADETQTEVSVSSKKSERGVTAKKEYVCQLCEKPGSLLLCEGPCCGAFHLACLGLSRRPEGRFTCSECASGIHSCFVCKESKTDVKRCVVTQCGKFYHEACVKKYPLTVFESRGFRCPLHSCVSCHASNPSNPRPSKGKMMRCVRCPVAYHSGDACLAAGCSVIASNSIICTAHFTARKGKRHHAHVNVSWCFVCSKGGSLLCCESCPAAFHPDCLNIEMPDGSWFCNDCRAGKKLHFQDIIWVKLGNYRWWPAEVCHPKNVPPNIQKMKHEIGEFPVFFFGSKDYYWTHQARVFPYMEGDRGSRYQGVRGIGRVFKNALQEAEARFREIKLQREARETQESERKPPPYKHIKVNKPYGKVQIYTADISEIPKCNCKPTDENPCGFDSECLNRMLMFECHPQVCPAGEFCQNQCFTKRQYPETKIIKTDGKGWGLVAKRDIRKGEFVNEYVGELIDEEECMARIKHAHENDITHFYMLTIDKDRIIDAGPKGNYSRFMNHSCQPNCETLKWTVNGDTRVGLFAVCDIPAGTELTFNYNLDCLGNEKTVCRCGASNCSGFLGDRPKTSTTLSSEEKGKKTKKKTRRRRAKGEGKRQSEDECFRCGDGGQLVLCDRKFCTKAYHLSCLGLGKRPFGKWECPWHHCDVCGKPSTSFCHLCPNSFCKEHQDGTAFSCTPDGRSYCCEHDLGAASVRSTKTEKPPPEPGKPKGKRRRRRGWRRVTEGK

[2] = biological target: T2, Fatty acid synthase (Homo sapiens, UniProt P49327); assay: FAS thioesterase domain inhibitors, dose response, biochemical, kinetic fluorescence intensity (AID 624326); type: functional;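 note: rate of fluorescence rise from hydrolysis of a fluorogenic O-methyl fluorescein ester substrate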
T2 sequence (P49327 whole entry, the tested form may be a part): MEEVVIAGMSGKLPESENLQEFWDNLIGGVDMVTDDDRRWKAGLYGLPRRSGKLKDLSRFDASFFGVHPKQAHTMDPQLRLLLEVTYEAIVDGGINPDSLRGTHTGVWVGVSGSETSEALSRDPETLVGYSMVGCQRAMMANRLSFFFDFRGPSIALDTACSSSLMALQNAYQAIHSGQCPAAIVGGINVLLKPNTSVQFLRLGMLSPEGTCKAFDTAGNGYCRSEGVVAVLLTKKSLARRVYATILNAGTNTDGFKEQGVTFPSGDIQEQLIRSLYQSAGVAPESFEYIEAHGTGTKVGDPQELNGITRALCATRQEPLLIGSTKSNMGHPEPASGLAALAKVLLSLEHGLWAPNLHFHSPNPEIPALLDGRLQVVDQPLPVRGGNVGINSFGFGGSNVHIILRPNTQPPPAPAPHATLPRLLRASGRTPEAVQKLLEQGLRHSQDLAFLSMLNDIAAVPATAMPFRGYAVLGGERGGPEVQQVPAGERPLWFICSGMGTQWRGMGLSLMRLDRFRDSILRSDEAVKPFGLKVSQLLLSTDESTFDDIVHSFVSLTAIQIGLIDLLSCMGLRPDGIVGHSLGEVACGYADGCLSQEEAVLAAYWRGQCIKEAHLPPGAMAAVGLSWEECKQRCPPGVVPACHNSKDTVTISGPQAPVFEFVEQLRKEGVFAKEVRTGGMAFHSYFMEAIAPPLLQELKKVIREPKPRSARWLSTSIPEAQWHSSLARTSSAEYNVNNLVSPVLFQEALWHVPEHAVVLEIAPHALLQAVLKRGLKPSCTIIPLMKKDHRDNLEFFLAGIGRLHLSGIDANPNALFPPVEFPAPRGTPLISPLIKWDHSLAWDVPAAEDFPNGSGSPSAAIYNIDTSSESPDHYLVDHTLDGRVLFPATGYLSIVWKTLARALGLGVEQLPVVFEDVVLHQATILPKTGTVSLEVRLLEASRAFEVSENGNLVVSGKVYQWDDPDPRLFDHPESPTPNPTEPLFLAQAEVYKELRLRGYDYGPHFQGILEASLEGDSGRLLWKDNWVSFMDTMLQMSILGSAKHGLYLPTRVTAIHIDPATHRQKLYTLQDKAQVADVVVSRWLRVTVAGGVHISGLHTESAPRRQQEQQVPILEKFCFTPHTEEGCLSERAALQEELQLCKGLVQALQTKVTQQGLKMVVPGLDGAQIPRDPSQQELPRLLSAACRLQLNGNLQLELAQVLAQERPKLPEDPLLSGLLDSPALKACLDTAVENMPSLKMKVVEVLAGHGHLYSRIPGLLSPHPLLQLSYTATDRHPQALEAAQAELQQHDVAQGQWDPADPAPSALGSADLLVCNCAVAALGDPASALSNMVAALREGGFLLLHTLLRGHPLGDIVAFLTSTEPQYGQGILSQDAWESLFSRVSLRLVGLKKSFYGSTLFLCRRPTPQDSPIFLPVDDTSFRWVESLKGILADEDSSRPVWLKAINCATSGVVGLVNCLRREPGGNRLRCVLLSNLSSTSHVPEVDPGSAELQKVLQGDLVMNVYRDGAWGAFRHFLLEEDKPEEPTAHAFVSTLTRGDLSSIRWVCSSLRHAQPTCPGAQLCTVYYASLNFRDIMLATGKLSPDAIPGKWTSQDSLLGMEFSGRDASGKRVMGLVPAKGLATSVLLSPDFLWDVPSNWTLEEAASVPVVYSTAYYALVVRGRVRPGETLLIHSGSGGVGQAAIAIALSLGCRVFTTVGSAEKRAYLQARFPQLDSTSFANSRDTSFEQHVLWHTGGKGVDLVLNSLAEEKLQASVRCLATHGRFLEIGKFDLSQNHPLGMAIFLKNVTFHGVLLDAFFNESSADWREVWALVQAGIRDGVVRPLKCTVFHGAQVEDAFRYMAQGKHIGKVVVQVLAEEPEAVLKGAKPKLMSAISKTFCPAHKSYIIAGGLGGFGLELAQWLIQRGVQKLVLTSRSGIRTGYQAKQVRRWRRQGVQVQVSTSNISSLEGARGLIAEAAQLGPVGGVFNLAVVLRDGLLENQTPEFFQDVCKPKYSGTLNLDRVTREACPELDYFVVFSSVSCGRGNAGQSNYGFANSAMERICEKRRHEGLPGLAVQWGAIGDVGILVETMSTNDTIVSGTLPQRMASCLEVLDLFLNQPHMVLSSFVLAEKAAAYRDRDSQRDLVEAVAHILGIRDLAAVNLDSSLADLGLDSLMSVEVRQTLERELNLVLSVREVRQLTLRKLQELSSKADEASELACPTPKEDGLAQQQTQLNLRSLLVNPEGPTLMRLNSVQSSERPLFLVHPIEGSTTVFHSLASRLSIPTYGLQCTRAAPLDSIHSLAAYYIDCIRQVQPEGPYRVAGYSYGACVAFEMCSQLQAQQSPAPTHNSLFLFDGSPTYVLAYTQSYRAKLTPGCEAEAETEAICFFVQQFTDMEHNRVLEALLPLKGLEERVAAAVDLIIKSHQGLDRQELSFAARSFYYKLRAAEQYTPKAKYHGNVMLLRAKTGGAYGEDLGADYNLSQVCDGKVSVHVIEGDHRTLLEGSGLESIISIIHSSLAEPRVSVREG

[3] = biological target: T2, Fatty acid synthase; assay: FAS thioesterase domain inhibitors, dose response, biochemical, endpoint fluorescence intensity, uHTS hits (AID 624327); type: functional;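 note: fluorescence from hydrolysis of an O-methyl fluorescein acyl ester substrate by the enzyme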
[4] = cytotoxicity in HEK-293T cells, dose response, cytotoxicity control for TCR NF-kB inhibitor project, luminescence, T-cell screen hits (AID 489026); type: functional, cell-based;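 note: cells exposed to compound about 14 hours before the viability readout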
[5] = Shn3 3'UTR reporter inhibitors, dose response, cell-based, Clone20 osteoblasts, firefly luciferase, cherry-picked (AID 624132); type: functional;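 note: firefly luciferase luminescence from reporter carrying the Shn3 3'UTR in osteoblasts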
[6] = control 3'UTR Renilla luciferase suppression, dose response, counter-screen for Shn3 inhibitor project, cell-based, Clone20-Shn3RL, cherry-picked (AID 624133); type: functional
[7] = HepG2 cell cytotoxicity, dose response, cytotoxicity control for Shn3 inhibitor project, CellTiter-Glo, cherry-picked (AID 624134); type: functional, cell-based
[8] = biological target: T3, Cytochrome P450 1A2 (Homo sapiens, UniProt P05177);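 note: PubChem cytochrome P450 panel assay, CYP1A2 panel member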
T3 sequence (P05177 whole entry): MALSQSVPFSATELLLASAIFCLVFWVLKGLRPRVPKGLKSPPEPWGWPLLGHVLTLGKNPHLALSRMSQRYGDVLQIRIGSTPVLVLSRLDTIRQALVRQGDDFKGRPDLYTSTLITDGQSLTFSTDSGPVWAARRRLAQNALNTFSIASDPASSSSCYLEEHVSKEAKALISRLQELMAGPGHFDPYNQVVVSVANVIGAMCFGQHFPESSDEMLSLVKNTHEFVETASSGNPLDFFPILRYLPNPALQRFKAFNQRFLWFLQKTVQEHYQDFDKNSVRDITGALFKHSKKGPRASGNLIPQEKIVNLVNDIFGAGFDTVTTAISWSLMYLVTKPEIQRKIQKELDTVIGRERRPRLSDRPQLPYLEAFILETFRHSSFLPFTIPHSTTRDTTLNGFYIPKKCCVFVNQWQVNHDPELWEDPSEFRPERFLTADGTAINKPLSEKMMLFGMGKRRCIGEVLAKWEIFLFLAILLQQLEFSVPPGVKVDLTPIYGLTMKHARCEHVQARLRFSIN

[9] = tested on: INS1; assay: beta cell apoptosis inhibitors, cytokine rescue, dose response, luminescence, retest (AID 449756); type: functional, cell-based; settings: Rattus norvegicus;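 note: cell death triggered by IL-1 beta plus TNF-alpha plus IFN-gamma mixture; protective hits raise ATP signal compared with cytokine alone wells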
[10] = Luminescence Cell-Based Dose Response HTS to Identify Inhibitors of 5'UTR Stem-Loop Driven Prion Protein mRNA Translation in H4 Neuroglioblastoma Cells. [Related pubchem assays: 1827 (Project Summary), 1813 (Primary HTS)]; type: functional
[11] = inhibitors of SNCA 5'UTR-driven reporter translation, confirmation, H4 neuroglioma cells, luminescence (AID 1988); type: functional, cell-based
[12] = inhibitors of firefly luciferase expression or activity, dose response, H4 neuroglioma cells, luminescence (AID 1990); type: functional, cell-based
[13] = cytotoxicity toward NIH3T3 fibroblasts, dose response, counter-screen, cell-based, ATP luminescence, mouse fibroblasts (AID 2010); type: functional;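 note: cells exposed to compound for about 90 hours before reading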
[14] = inhibitors of intracellular T. cruzi replication, confirmation, NIH3T3 host cells, beta-gal luminescence (AID 2044); type: functional, cell-based;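 note: intracellular parasites grown in NIH/3T3 mouse fibroblasts as host cells; luminescent beta-galactosidase reporter signal from transgenic T. cruzi replicating inside host cells; inhibitors lower the luminescence signal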
[15] = biological target: T4, Long-chain-fatty-acid--AMP ligase FadD28 (Mycobacterium tuberculosis, UniProt P9WQ59); assay: Fluorescence polarization aasay to screen for inhibitors that compete for the binding of FadD28 to a bisubstrate Measured in Biochemical System Using Plate Reader - 2147-01_Inhibitor_Dose_CherryPick_Activity.; type: functional, Mycobacterium tuberculosis H37Rv
T4 sequence (P9WQ59 whole entry): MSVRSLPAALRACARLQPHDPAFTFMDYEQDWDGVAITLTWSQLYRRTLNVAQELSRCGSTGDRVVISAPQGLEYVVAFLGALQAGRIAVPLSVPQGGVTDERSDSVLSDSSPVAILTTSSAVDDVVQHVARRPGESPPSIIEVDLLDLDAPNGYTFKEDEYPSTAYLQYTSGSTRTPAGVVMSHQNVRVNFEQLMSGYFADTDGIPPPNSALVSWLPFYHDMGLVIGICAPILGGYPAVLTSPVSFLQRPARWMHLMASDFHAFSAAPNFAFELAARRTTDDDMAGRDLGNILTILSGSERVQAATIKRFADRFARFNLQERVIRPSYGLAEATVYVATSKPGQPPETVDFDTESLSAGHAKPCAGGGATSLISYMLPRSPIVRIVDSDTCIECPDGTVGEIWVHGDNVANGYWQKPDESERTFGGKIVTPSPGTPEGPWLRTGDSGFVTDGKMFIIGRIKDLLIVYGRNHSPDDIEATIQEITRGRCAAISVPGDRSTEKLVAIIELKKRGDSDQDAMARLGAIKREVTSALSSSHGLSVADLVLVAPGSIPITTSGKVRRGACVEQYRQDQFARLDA

[16] = biological target: T5, Carboxy-terminal domain RNA polymerase II polypeptide A small phosphatase 1 (Homo sapiens, UniProt Q9GZU7); assay: inhibitors of CTDSP1, concentration-response testing, biochemical assay, absorbance-based, actives from ultra-high-throughput screening (AID 540297); type: functional
T5 sequence (Q9GZU7 whole entry): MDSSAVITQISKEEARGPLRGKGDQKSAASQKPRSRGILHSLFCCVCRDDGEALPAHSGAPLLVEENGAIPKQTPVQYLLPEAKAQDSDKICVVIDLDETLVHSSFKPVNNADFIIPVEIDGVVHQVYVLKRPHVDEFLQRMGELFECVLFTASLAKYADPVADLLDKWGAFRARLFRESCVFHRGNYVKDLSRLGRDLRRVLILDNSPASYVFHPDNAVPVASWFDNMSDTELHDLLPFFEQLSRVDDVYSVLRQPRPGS

For `CCN(CC)CCCN(Cc1cc2cc3c(cc2nc1O)OCO3)C(S)=NCCCOC`, which AC50 [1] is on record?
Its AC50 is > 20 µM (inactive).

Which results are given for `C[C@H](NC(=O)c1[nH]cnc1C(=O)N[C@@H](CCCCNC(=O)OC(C)(C)C)C(=O)OC(C)(C)C)C(=O)OC(C)(C)C`?
IC50 [2]: 2.6 µM (active); IC50 [3]: 2.95 µM (active)

What does the source list for `COc1ccc(CCNc2cc(N3CCN(C(=O)c4ccccc4F)CC3)ccc2[N+](=O)[O-])cc1OC`?
IC50 [4]: > 80 µM (inactive); AC50 [5]: 1.26 µM (active); AC50 [6]: 811 nM (active); AC50 [7]: 845 nM (active)

Which IC50 [2] does the source give for `O=C(NCc1ccc2c(c1)OCO2)c1ccc(C2SCC(=O)N2Cc2ccco2)cc1` (stereo not drawn) here?
The IC50 was 5.95 µM (active).

And the IC50 [3]?
Its IC50 is 8.5 µM (active).

With `CCOC(=O)C1CCCN(c2nc3c(C)cccn3c(=O)c2/C=C(\C#N)C(=O)NCc2ccco2)C1` (stereo not drawn) as the molecule, how does the IC50 [2] read?
The IC50 was 8.23 µM (active).

And the IC50 [3]?
The IC50 was 16.2 µM (active).

For `CC(C)Cn1c(N)c(C(=O)CSc2ccc3c(c2)OCCO3)c(=O)n(C)c1=O`, which IC50 [4] is on record?
Its IC50 is > 80 µM (inactive).

And the AC50 [5]?
The AC50 was 0.674 µM (active).

And the AC50 [8]?
The AC50 was 31.6 µM (inconclusive).

And the AC50 [6]?
The AC50 was 1570 nM (active).

What about the AC50 [7] of the same molecule?
Its AC50 is 1740 nM (active).

And the AC50 [9]?
The AC50 was 2.98 µM (active).

Which EC50 [10] does the source give for `CC(C)n1c(CN(C)Cc2ccccc2)nc2c1c(=O)n(C)c(=O)n2C` here?
The EC50 was > 120 µM (not active).

What about the IC50 [4] of the same molecule?
Its IC50 is > 80 µM (inactive).

And the EC50 [11]?
Its EC50 is > 120 µM (not active).

What about the EC50 [12] of the same molecule?
The EC50 was 43 µM (active).

With `Cc1c(Cl)c([N+](=O)[O-])nn1CCCC(=O)N(Cc1ccccc1)Cc1ccccc1` as the molecule, how does the IC50 [2] read?
The IC50 was 11 µM (active).

And the EC50 [13]?
Its EC50 is 29.7 µM (active).

What about the EC50 [14] of the same molecule?
Its EC50 is 1.86 µM (active).

What about the IC50 [3] of the same molecule?
Its IC50 is 10 µM (active).

Which AC50 [15] does the source give for `Cc1cccc(CSCCNC(=O)c2ccc(N(C)S(=O)(=O)c3ccccc3)cc2)c1` here?
Its AC50 is > 100 µM (inactive).

Which AC50 [15] does the source give for `Cc1ccc(NC(=O)Nc2sc(=S)n(C)c2C)cc1` here?
Its AC50 is > 100 µM (inactive).

What does the source list for `COCCCNC(=O)C(=O)Nc1ccc2c(c1)N(S(=O)(=O)c1cccs1)CCC2`?
EC50 [10]: 6.86 µM (active); IC50 [4]: > 80 µM (inactive); EC50 [11]: 0.419 µM (active); EC50 [12]: 4.45 µM (inconclusive)

For `Cc1cccc(N2CCN(C(=O)c3ccc(S(=O)(=O)N(C)c4ccccc4)cc3)CC2)c1C`, which IC50 [4] is on record?
Its IC50 is > 80 µM (inactive).

And the IC50 [16]?
Its IC50 is 12 µM (active).
